Values after ≈ are worked out from the molar mass of the structure shown. “Also recorded” adds a separate entry of the source. Like-named read-outs stand apart in the source and are kept apart here.
How the values were obtained:
JBU = details: cited from earlier work
jack bean urease (JBU) [1] = target: T1, jack bean urease (JBU) (Canavalia ensiformis, UniProt P07374); assay: biochemical
T1 construct: Jack bean urease (JBU) (Type III, 40.3 U/mg) were offered by Sigma; purchased Sigma Type III, 40.3 U/mg (catalogue number not given)
T1 sequence (P07374 whole entry, looked up): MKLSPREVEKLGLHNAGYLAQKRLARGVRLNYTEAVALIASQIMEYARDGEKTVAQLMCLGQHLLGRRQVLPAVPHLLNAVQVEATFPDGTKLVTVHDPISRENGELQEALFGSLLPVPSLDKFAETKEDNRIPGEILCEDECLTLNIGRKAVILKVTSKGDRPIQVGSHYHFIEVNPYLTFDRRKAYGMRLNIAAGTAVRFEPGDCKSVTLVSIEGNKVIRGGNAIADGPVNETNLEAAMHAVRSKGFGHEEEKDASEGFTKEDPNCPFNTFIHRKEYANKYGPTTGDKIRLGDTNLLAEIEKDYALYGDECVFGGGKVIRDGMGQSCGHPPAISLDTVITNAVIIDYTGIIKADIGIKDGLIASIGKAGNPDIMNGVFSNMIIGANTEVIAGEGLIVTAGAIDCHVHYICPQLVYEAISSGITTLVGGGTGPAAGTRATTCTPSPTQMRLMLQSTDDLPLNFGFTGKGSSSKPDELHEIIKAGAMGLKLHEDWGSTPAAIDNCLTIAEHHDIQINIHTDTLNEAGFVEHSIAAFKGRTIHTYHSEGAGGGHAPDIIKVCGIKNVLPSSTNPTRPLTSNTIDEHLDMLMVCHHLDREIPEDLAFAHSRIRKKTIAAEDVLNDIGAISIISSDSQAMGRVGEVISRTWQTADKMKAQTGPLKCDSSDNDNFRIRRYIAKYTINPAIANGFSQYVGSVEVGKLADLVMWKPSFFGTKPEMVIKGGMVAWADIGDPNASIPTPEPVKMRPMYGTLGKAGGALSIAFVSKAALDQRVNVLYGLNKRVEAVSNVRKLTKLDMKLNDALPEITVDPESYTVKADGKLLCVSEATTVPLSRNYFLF

H. pylori urease (HPU) [2] = target: T2, H. pylori urease (HPU) (Helicobacter pylori, UniProt P69996); assay: Reactivation of PIC-deactivated urease by GSH; assay type: biochemical
T2 construct: endogenous in cells; host or cells: Helicobacter pylori ATCC 43504 (extract, method of Matsubara et al. 2003)
T2 sequence (P69996 whole entry): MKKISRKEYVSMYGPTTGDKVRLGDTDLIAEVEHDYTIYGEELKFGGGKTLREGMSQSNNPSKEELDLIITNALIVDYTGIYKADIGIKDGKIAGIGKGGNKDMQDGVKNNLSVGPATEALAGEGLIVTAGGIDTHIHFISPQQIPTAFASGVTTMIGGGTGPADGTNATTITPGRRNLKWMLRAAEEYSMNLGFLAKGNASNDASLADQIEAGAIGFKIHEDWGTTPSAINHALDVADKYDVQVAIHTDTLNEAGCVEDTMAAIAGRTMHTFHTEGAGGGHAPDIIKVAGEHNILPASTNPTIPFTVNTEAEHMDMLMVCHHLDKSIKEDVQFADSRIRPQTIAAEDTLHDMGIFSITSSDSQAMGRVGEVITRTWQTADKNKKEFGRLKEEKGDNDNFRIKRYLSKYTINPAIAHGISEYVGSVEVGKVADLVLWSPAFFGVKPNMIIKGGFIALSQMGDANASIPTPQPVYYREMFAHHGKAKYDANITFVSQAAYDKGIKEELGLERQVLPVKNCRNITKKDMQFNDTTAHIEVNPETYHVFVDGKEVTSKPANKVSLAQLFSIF
T2 sequence (P14916 whole entry, further chain): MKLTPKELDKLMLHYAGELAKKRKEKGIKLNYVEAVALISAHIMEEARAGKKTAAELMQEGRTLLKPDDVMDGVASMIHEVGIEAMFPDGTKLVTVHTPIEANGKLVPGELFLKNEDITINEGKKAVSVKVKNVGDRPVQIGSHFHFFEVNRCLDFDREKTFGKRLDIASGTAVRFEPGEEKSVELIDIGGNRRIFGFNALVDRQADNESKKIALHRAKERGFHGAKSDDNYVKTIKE
Description: (§1) After 20 min, half of the reaction solution was removed and added to 1.25 mM GSH solution. Enzyme activity was determined before and after the addition of GSH. After co‐incubation for different periods, the residual enzyme activity in the mixtures was detected as described in Section 2.4.

jack bean urease (JBU) [3] = target: T1, jack bean urease (JBU); assay: Reactivation of PIC-deactivated urease by GSH; assay type: biochemical
Description: as §1

H. pylori urease (HPU) [4] = target: T2, H. pylori urease (HPU); assay: Urease inhibition type and kinetics (Lineweaver-Burk plots, progress curves); assay type: biochemical
Description: (§2) The Lineweaver‐Burk plots were applied to calculate the change in the Michaelis constant (K M) and maximum velocity (V max). […] Additionally, the inhibition constant was derived by secondary replotting of Lineweaver‐Burk plots. All tests were performed in triplicate.
(§3) Enzyme activity in both procedures was measured as outlined in Section 2.4. Subsequently, the curve fitting software was used to fit the data according to the following formula: Pt=VS×t+V0−VS(1−e^−kapp×t)/kapp^−1 where, P(t) is the amount of product accumulated after t minutes of reaction, V 0 is the velocity at the start of the reaction, V S is the velocity at which the reaction reaches equilibrium, and kapp is the apparent velocity constant (Breitenbach and Hausinger [1988]). The experiments were repeated three times.

jack bean urease (JBU) [5] = target: T1, jack bean urease (JBU); assay: as above; assay type: biochemical
Description: as §2, §3

H. pylori urease (HPU) [6] = target: T2, H. pylori urease (HPU); assay: Urease inhibition test (Berthelot, ammonia at 595 nm); assay type: biochemical
Description: (§4) The standard strain H. pylori strains (ATCC 43504) were cultured on Mueller‐Hinton agar supplemented with 5% sheep blood. Bacterial cultures were maintained for 72 h at 37°C in a microaerophilic environment (5% O2, 10% CO2, 85% N2). For urease extraction, bacterial cells were harvested by centrifugation (5000×g, 10 min, 4°C) and subsequently washed three times with phosphate‐buffered saline (pH 7.4). Following turbidity adjustment using McFarland standards, H. pylori urease was prepared via a method established by Matsubara et al. ([2003]).
Urease activity was measured using spectrophotometry. The reaction was initiated by blending a particular amount of enzyme‐containing solution and 150 mM urea in 20 mM HEPES buffer (pH 7.5) at 37°C. Following 20 min, the Berthelot reagent was applied, and the quantity of ammonia produced by the urease‐urea reaction was detected at 595 nm (Wu et al. [2013]). The control group represented the activity of the uninhibited enzyme, which is 100% active. […]
Then 150 mM urea was added, and the reaction was carried out in the dark for 20 min. Afterward, the Berthelot reagent was added, and the quantity of ammonia produced by the urease‐urea reaction was detected at 595 nm. The residual enzyme activity (RA%) was calculated using the formula: RA% = activity with inhibitor/activity without inhibitor × 100%. […]

[7] = tested on: Helicobacter pylori strains (ATCC 43504, HP1869, HP1870); assay: Minimal inhibitory concentration assay (agar dilution); assay type: cell-based; details: ATCC43504, 120 h, pH 7.2, 5 days
Description: as §4
After solidification and overnight storage at 4°C to confirm sterility, plates showing no contamination were inoculated with 100 μL of H. pylori suspension (adjusted to McFarland 1.0 standard) and incubated microaerophilically (85% N2, 10% CO2, 5% O2) at 37°C for 5 days.

HPU = details: ref Xiao et al. [2007]; cited from earlier work
[8] = PIC-inactivated urease after adding 1.25 mM GSH
[9] = co-incubation with 1.5 mM PIC for 20 min
[10] = Lineweaver-Burk plot, progress curves
[11] = 20 min preincubation at 37°C, 150 mM urea, pH 7.5, read-out: IC50

O=C(O)[C@H]1O[C@@H](Oc2cc3oc(-c4ccc(O)cc4)cc(=O)c3c(O)c2O)[C@H](O)[C@@H](O)[C@@H]1O [scutellarin]
IC50 (JBU; ref Wu et al. [2013]): 1350 ± 150 µM

O=C(O)[C@H]1O[C@@H](Oc2cc3oc(-c4ccccc4)cc(=O)c3c(O)c2O)[C@H](O)[C@@H](O)[C@@H]1O [Baicalin]
IC50 (JBU; ref Tan et al. [2013], Yu et al. [2015]): 2740 ± 510 µM

Oc1cc(O)cc(/C=C/c2ccc(O)c(O)c2)c1 [PIC, Piceatannol]
IC50 (jack bean urease (JBU) [1]): 470 ± 10 µM | reversibility of inactivation (H. pylori urease (HPU) [2]; GSH reactivation): reversible | urease activity restored, of the initial activity (H. pylori urease (HPU) [2]; [8]): about 60% | initial activity lost (H. pylori urease (HPU) [2]; [9]): approximately 80% | reversibility of inactivation (jack bean urease (JBU) [3]; GSH reactivation): reversible | urease activity restored, of the initial activity (jack bean urease (JBU) [3]; [8]): about 60% | initial activity lost (jack bean urease (JBU) [3]; [9]): approximately 80% | Ki (H. pylori urease (HPU) [4]): 630 ± 20 µM | inhibition type (H. pylori urease (HPU) [4]; [10]): slow‐binding, mixed inhibitor; also recorded: mixed‐type inhibitor; also recorded: slow‐binding inhibition | inhibitory constant Kis (H. pylori urease (HPU) [4]; secondary replot of Lineweaver-Burk intercepts): 0.94 ± 0.01 mM | Ki (jack bean urease (JBU) [5]): 340 ± 50 µM | inhibition type (jack bean urease (JBU) [5]; [10]): slow‐binding, non‐competitive inhibitor; also recorded: non‐competitive type; also recorded: slow‐binding inhibition | IC50 (H. pylori urease (HPU) [6]): 670 ± 20 µM | MIC ([7]; pH 7.2, clinical strain HP1869, Mueller-Hinton agar): 100 µg/mL (≈ 409 µM) | MIC ([7]; pH 7.2, clinical strain HP1870, Mueller-Hinton agar): 100 µg/mL (≈ 409 µM) | MIC ([7]; pH 7.2, strain ATCC 43504 (standard strain), Mueller-Hinton agar): 150 µg/mL (≈ 614 µM)

O=c1c(-c2ccc(O)cc2)coc2c(O)c(O)ccc12 [7,8,4′‐trihydroxyisoflavone]
IC50 (HPU): 140 µM

CC(=O)NO [AHA, Acetohydroxamic acid, reference compound]
IC50 (jack bean urease (JBU) [1]; [11]): 20 µM | IC50 (H. pylori urease (HPU) [6]; [11]): 80 µM

— publication PMC12417329 (Food Science & Nutrition, 2025)
